Data reported in PubChem BioAssay (NCI).
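The concentration for 50% growth inhibition is given as GI50. TGI marks complete inhibition of growth.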

What was measured:
Experiment in all cases: NCI tumour cell line growth inhibition, 384-well format
786-0 renal = tested on: 786-0 renal
A498 renal = tested on: A498 renal
A549 NSCLC = tested on: A549 NSCLC
ACHN renal = tested on: ACHN renal
BT-549 breast = tested on: BT-549 breast
CAKI-1 renal = tested on: CAKI-1 renal
CCRF-CEM leukemia = tested on: CCRF-CEM leukemia
COLO 205 colon = tested on: COLO 205 colon
DU-145 prostate = tested on: DU-145 prostate
HCC-2998 colon = tested on: HCC-2998 colon
HCT-116 colon = tested on: HCT-116 colon
HCT-15 colon = tested on: HCT-15 colon
HL-60(TB) leukemia = tested on: HL-60(TB) leukemia
HOP-62 NSCLC = tested on: HOP-62 NSCLC
HOP-92 NSCLC = tested on: HOP-92 NSCLC
HT29 colon = tested on: HT29 colon
IGROV1 ovarian = tested on: IGROV1 ovarian
K-562 leukemia = tested on: K-562 leukemia
KM12 colon = tested on: KM12 colon
LOX IMVI melanoma = tested on: LOX IMVI melanoma
M14 melanoma = tested on: M14 melanoma
MALME-3M melanoma = tested on: MALME-3M melanoma
MCF7 breast = tested on: MCF7 breast
MDA-MB-231 breast = tested on: MDA-MB-231 breast
MDA-MB-435 melanoma = tested on: MDA-MB-435 melanoma
MDA-MB-468 breast = tested on: MDA-MB-468 breast
MOLT-4 leukemia = tested on: MOLT-4 leukemia
NCI-H226 lung = tested on: NCI-H226 lung
NCI-H23 lung = tested on: NCI-H23 lung
NCI-H322M lung = tested on: NCI-H322M lung
NCI-H460 NSCLC = tested on: NCI-H460 NSCLC
NCI-H522 lung = tested on: NCI-H522 lung
NCI/ADR-RES ovarian = tested on: NCI/ADR-RES ovarian
OVCAR-3 ovarian = tested on: OVCAR-3 ovarian
OVCAR-4 ovarian = tested on: OVCAR-4 ovarian
OVCAR-5 ovarian = tested on: OVCAR-5 ovarian
OVCAR-8 ovarian = tested on: OVCAR-8 ovarian
PC-3 prostate = tested on: PC-3 prostate
RXF 393 renal = tested on: RXF 393 renal
SF-268 CNS = tested on: SF-268 CNS
SF-295 CNS = tested on: SF-295 CNS
SF-539 CNS = tested on: SF-539 CNS
SK-MEL-2 melanoma = tested on: SK-MEL-2 melanoma
SK-MEL-28 melanoma = tested on: SK-MEL-28 melanoma
SK-MEL-5 melanoma = tested on: SK-MEL-5 melanoma
SK-OV-3 ovarian = tested on: SK-OV-3 ovarian
SN12C renal = tested on: SN12C renal
SNB-19 CNS = tested on: SNB-19 CNS
SR leukemia = tested on: SR leukemia
SW-620 colon = tested on: SW-620 colon
T-47D breast = tested on: T-47D breast
TK-10 renal = tested on: TK-10 renal
U251 glioblastoma = tested on: U251 glioblastoma
UACC-257 melanoma = tested on: UACC-257 melanoma
UACC-62 melanoma = tested on: UACC-62 melanoma
UO-31 renal = tested on: UO-31 renal

For `CN(c1ccc(C#N)c(Cl)c1)C1CCC(NC(=O)c2ccc(N3CCN(C4CN(c5ccc6c(c5)C(=O)N(C5CCC(=O)NC5=O)C6=O)C4)CC3)cc2)CC1` (configuration not stated), the GI50 ([…]-0 renal) was > 100 µM, the TGI (786-0 renal) was > 100 µM and the GI50 (A498 renal) was > 100 µM. The TGI (A498 renal) was > 100 µM, the GI50 (A549 NSCLC) was > 100 µM and the TGI (A549 NSCLC) was > 100 µM. For the same compound, the GI50 (ACHN renal) was > 100 µM, the TGI (ACHN renal) was > 100 µM and the GI50 (BT-549 breast) was > 100 µM. For the same compound, the TGI (BT-549 breast) was > 100 µM, the GI50 (CAKI-1 renal) was > 100 µM and the TGI (CAKI-1 renal) was > 100 µM. For the same compound, the GI50 (CCRF-CEM leukemia) was > 100 µM, the TGI (CCRF-CEM leukemia) was > 100 µM and the GI50 (COLO 205 colon) was > 100 µM. For the same compound, the TGI (COLO 205 colon) was > 100 µM, the GI50 (DU-145 prostate) was > 100 µM and the TGI (DU-145 prostate) was > 100 µM. For the same compound, the GI50 (HCC-2998 colon) was > 100 µM, the TGI (HCC-2998 colon) was > 100 µM and the GI50 (HCT-116 colon) was > 100 µM. The TGI (HCT-116 colon) was > 100 µM, the GI50 (HCT-15 colon) was > 100 µM and the TGI (HCT-15 colon) was > 100 µM. For the same compound, the GI50 (HL-60(TB) leukemia) was > 100 µM, the TGI (HL-60(TB) leukemia) was > 100 µM and the GI50 (HOP-62 NSCLC) was > 100 µM. For the same compound, the TGI (HOP-62 NSCLC) was > 100 µM, the GI50 (HOP-92 NSCLC) was > 100 µM and the TGI (HOP-92 NSCLC) was > 100 µM. The GI50 (HT29 colon) was > 100 µM, the TGI (HT29 colon) was > 100 µM and the GI50 (IGROV1 ovarian) was > 100 µM. The TGI (IGROV1 ovarian) was > 100 µM, the GI50 (K-562 leukemia) was > 100 µM and the TGI (K-562 leukemia) was > 100 µM. The GI50 (KM12 colon) was > 100 µM, the TGI (KM12 colon) was > 100 µM and the GI50 (LOX IMVI melanoma) was > 100 µM. The TGI (LOX IMVI melanoma) was > 100 µM, the GI50 (M14 melanoma) was > 100 µM and the TGI (M14 melanoma) was > 100 µM. For the same compound, the GI50 (MALME-3M melanoma) was > 100 µM, the TGI (MALME-3M melanoma) was > 100 µM and the GI50 (MCF7 breast) was > 100 µM. The TGI (MCF7 breast) was > 100 µM, the GI50 (MDA-MB-231 breast) was > 100 µM and the TGI (MDA-MB-231 breast) was > 100 µM. For the same compound, the GI50 (MDA-MB-435 melanoma) was > 100 µM, the TGI (MDA-MB-435 melanoma) was > 100 µM and the GI50 (MDA-MB-468 breast) was > 100 µM. For the same compound, the TGI (MDA-MB-468 breast) was > 100 µM, the GI50 (MOLT-4 leukemia) was > 100 µM and the TGI (MOLT-4 leukemia) was > 100 µM. For the same compound, the GI50 (NCI-H226 lung) was > 100 µM, the TGI (NCI-H226 lung) was > 100 µM and the GI50 (NCI-H23 lung) was > 100 µM. For the same compound, the TGI (NCI-H23 lung) was > 100 µM, the GI50 (NCI-H322M lung) was > 100 µM and the TGI (NCI-H322M lung) was > 100 µM. For the same compound, the GI50 (NCI-H460 NSCLC) was > 100 µM, the TGI (NCI-H460 NSCLC) was > 100 µM and the GI50 (NCI-H522 lung) was > 100 µM. The TGI (NCI-H522 lung) was > 100 µM, the GI50 (NCI/ADR-RES ovarian) was > 100 µM and the TGI (NCI/ADR-RES ovarian) was > 100 µM. The GI50 (OVCAR-3 ovarian) was > 100 µM, the TGI (OVCAR-3 ovarian) was > 100 µM and the GI50 (OVCAR-4 ovarian) was > 100 µM. For the same compound, the TGI (OVCAR-4 ovarian) was > 100 µM, the GI50 (OVCAR-5 ovarian) was > 100 µM and the TGI (OVCAR-5 ovarian) was > 100 µM. The GI50 (OVCAR-8 ovarian) was > 100 µM, the TGI (OVCAR-8 ovarian) was > 100 µM and the GI50 (PC-3 prostate) was > 100 µM. For the same compound, the TGI (PC-3 prostate) was > 100 µM, the GI50 (RXF 393 renal) was > 100 µM and the TGI (RXF 393 renal) was > 100 µM. The GI50 (SF-268 CNS) was > 100 µM, the TGI (SF-268 CNS) was > 100 µM and the GI50 (SF-295 CNS) was > 100 µM. For the same compound, the TGI (SF-295 CNS) was > 100 µM, the GI50 (SF-539 CNS) was > 100 µM and the TGI (SF-539 CNS) was > 100 µM. For the same compound, the GI50 (SK-MEL-2 melanoma) was > 100 µM, the TGI (SK-MEL-2 melanoma) was > 100 µM and the GI50 (SK-MEL-28 melanoma) was > 100 µM. The TGI (SK-MEL-28 melanoma) was > 100 µM, the GI50 (SK-MEL-5 melanoma) was > 100 µM and the TGI (SK-MEL-5 melanoma) was > 100 µM. For the same compound, the GI50 (SK-OV-3 ovarian) was > 100 µM, the TGI (SK-OV-3 ovarian) was > 100 µM and the GI50 (SN12C renal) was > 100 µM. For the same compound, the TGI (SN12C renal) was > 100 µM, the GI50 (SNB-19 CNS) was > 100 µM and the TGI (SNB-19 CNS) was > 100 µM. For the same compound, the GI50 (SR leukemia) was > 100 µM, the TGI (SR leukemia) was > 100 µM and the GI50 (SW-620 colon) was > 100 µM. The TGI (SW-620 colon) was > 100 µM, the GI50 (T-47D breast) was > 100 µM and the TGI (T-47D breast) was > 100 µM. For the same compound, the GI50 (TK-10 renal) was > 100 µM, the TGI (TK-10 renal) was > 100 µM and the GI50 (U251 glioblastoma) was > 100 µM. For the same compound, the TGI (U251 glioblastoma) was > 100 µM, the GI50 (UACC-257 melanoma) was > 100 µM and the TGI (UACC-257 melanoma) was > 100 µM. The GI50 (UACC-62 melanoma) was > 100 µM, the TGI (UACC-62 melanoma) was > 100 µM and the GI50 (UO-31 renal) was > 100 µM. The TGI (UO-31 renal) was > 100 µM.
